Results on six compounds are retold here after patent EP0049049A1, “5-Amino-tetrazole derivatives, processes for their preparation and pharmaceutical compositions containing them” (GLAXO GROUP LIMITED, priority 1980, dated 1982).

Each structure is given as a SMILES string. Read-outs that look alike come from different tables or passages of the source.

In this test the test system is perfused rat stomach. Put plainly: perfused rat stomach test (inhibition of gastric acid secretion stimulated via histamine receptors). Format: in vivo. From the text: Certain novel heterocyclic derivatives have now been found which have potent activity as H2-antagonists. […] Certain compounds according to the invention have the advantage of an extended duration of action .

One may read the ED50 as the midpoint of the dose-response relation. As to `CC(C)n1nnnc1NCCCCOc1cccc(CN2CCCCC2)c1` [1(c), l-(l-methylethyl)-N-[4-[3-(1-piperidinylmethyl)phenoxy]butyl]-1H-tetrazol-5-amine], where the note is “read-out: ED50”, the ED50 is below 0.22 mg/kg.
For `CN(C)Cc1cc(CSCCNc2nnnn2C)cs1` [5(b), N-[2-[[5-(dimethylamino)methyl-3-thienylmethyl]thio]ethyl]-1-methyl-lH-tetrazol-5-amine], the ED50 result is on record as “less than 0.22 mg/kg”.
With `CCCCCCNCc1cccc(OCCCNc2nnnn2C)c1` [7(b), N-[3-[3-[(hexylamino)methyl]phenoxy]propyl]-1-methyl-1H-tetrazol-5-amine hydrate (4:1)], the ED50 (read-out: ED50) was below 0.22 mg/kg.
Take `OCCn1nnnc1NCCCOc1cccc(CN2CCCCC2)c1` [Example 4, 5-[[3-[3-(1-piperidinylmethyl)phenoxy]propyl]amino]-1H-tetrazol-1-(2-ethanol) hydrate (4 : 1)]: where the note is “read-out: ED50”, the ED50 is below 0.22 mg/kg.
Regarding `Cn1nnnc1NCCCOc1cccc(CN2CCCCC2)c1` [l(a), 1-Methyl-N-[3-[3-(1-piperidinylmethyl)phenoxy]propyl]-1H-tetrazol-5-amine], the ED50 (read-out: ED50) is below 0.22 mg/kg.
Turning to `CN(C)Cc1cccc(OCCCNc2nnnn2C)c1` [l(d), l-methyl-N-[[3-[3-(dimethylamino)methyl]phenoxy]propyl]-lH-tetrazol-5-amine], where the note is “read-out: ED50”, the ED50 is below 0.22 mg/kg.
